Experimental data taken from US7541352B2, “Compounds for the treatment of hepatitis C” (Bristol-Myers Squibb Company, priority 2007, dated 2009).
Like-named read-outs stand apart in the source and are kept apart here.

Experiments:
[1] = target: T1, HCV NS5B RdRp genotype 1b (Hepatitis C virus genotype 1b, UniProt Q9WMX2); experiment: Modified HCV NS5B RdRp enzyme assay (preincubation protocol); assay type: biochemical
T1 construct: The protein was expressed with an 18 amino acid C-terminal truncation to enhance the solubility; made in house; host or cells: E. coli BL21(DE3), pET21a
T1 sequence (Q9WMX2 2420-2992): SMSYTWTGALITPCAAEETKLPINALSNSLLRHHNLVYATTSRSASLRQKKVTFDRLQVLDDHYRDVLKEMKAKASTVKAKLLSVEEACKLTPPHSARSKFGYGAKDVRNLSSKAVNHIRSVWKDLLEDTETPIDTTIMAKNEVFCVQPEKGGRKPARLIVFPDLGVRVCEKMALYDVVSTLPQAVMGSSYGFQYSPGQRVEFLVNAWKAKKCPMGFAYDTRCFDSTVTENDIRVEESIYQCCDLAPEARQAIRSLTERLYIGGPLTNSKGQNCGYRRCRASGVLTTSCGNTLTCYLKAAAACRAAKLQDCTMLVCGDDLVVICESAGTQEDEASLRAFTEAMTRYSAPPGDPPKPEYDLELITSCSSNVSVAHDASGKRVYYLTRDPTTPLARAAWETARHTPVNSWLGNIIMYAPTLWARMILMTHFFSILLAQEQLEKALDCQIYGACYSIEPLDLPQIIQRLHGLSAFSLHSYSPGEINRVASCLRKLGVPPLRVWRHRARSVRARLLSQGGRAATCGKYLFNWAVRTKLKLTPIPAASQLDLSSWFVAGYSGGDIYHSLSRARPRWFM
Protocol: HCV NS5B RdRp cloning, expression, and purification. The cDNA encoding the NS5B protein of HCV, genotype 1b, was cloned into the pET21a expression vector. The protein was expressed with an 18 amino acid C-terminal truncation to enhance the solubility. The E. coli competent cell line BL21(DE3) was used for expression of the protein. Cultures were grown at 37° C. for ˜4 hours until the cultures reached an optical density of 2.0 at 600 nm. The cultures were cooled to 20° C. and induced with 1 mM IPTG. Fresh ampicillin was added to a final concentration of 50 μg/ml and the cells were grown overnight at 20° C.
Cell pellets (3 L) were lysed for purification to yield 15-24 mgs of purified NS5B. The lysis buffer consisted of 20 mM Tris-HCl, pH 7.4, 500 mM NaCl, 0.5% triton X-100, 1 mM DTT, 1 mM EDTA, 20% glycerol, 0.5 mg/ml lysozyme, 10 mM MgCl2, 15 ug/ml deoxyribonuclease I, and Complete TM protease inhibitor tablets (Roche). After addition of the lysis buffer, frozen cell pellets were resuspended using a tissue homogenizer. To reduce the viscosity of the sample, aliquots of the lysate were sonicated on ice using a microtip attached to a Branson sonicator. The sonicated lysate was centrifuged at 100,000×g for 1 hr at 4° C. and filtered through a 0.2 μm filter unit (Corning).
The protein was purified using two sequential chromatography steps: Heparin sepharose CL-6B and polyu sepharose 4B (Pharmacia). The chromatography buffers were identical to the lysis buffer but contained no lysozyme, deoxyribonuclease I, MgCl2 or protease inhibitor and the NaCl concentration of the buffer was adjusted according to the requirements for charging the protein onto the column. Each column was eluted with a NaCl gradient which varied in length from 5-50 column volumes depending on the column type. After the final chromatography step, the resulting purity of the enzyme is >90% based on SDS-PAGE analysis. The enzyme was aliquoted and stored at −80° C.
Standard HCV NS5B RdRp enzyme assay. HCV RdRp genotype 1b assays were run in a final volume of 60 μl in 96 well plates (Corning 3600). The assay buffer is composed of 20 mM Hepes, pH 7.5, 2.5 mM KCl, 2.5 mM MgCl2, 1 mM DTT, 1.6 U RNAse inhibitor (Promega N2515), 0.01 mg/ml BSA (Sigma B6917), and 2% glycerol. All compounds were serially diluted (3-fold) in DMSO and diluted further in water such that the final concentration of DMSO in the assay was 2%. HCV RdRp genotype 1b enzyme was used at a final concentration of 28 nM. A polyA template was used at 6 nM, and a biotinylated oligo-dT 12 primer was used at 180 nM final concentration. Template was obtained commercially (Amersham 27-4110). Biotinylated primer was prepared by Sigma Genosys. 3H-UTP was used at 0.6 μCi (0.29 μM total UTP). Reactions were initiated by the addition of enzyme, incubated at 30° C. for 60 min, and stopped by adding 25 μl of 50 mM EDTA containing SPA beads (4 μg/μl, Amersham RPNQ 0007). Plates were read on a Packard Top Count NXT after >1 hr incubation at room temperature.
Modified HCV NS5B RdRp enzyme assay. A modified enzyme assay was performed essentially as described for the standard enzyme assay except for the following: The biotinylated oligo dT12 primer was precaptured on streptavidin-coated SPA beads by mixing primer and beads in assay buffer and incubating at room temperature for one hour. Unbound primer was removed after centrifugation. The primer-bound beads were resuspended in 20 mM Hepes buffer, pH 7.5 and used in the assay at final concentrations of 20 nM primer and 0.67 μg/μl beads. Order of addition in the assay: enzyme (1.75 nM) was added to diluted compound followed by the addition of a mixture of template (0.36 nM), 3H-UTP (0.6 μCi, 0.29 μM), and primer-bound beads, to initiate the reaction; concentrations given are final. Reactions were allowed to proceed for 4 hours at 30° C.
IC50 values for compounds were determined using seven different [I]. […]

[2] = tested on: HCV replicon cells; experiment: HCV replicon FRET assay; assay type: cell-based; settings: Hepatitis C virus
Protocol: FRET Assay Preparation. The HCV FRET screening assay was performed in 96-well cell culture plates. The FRET peptide (Anaspec, Inc.) (Taliani et al., Anal. Biochem. 1996, 240, 60-67) contains a fluorescence donor, EDANS, near one end of the peptide and an acceptor, DABCYL, near the other end. The fluorescence of the peptide is quenched by […] resonance energy transfer (RET) between the donor and the acceptor, but as the NS3 protease cleaves the peptide the products are released from RET quenching and the fluorescence of the donor becomes apparent. The assay reagent was made as follows: 5× cell Luciferase cell culture lysis reagent from Promega (#E153A) diluted to 1× with dH2O, NaCl added to 150 mM final, the FRET peptide diluted to 20 μM final from a 2 mM stock.
To prepare plates, HCV replicon cells, with or without a Renilla luciferase reporter gene, were trypsinized and plated in a 96-well plate with titrated test compounds added in columns 3 through 12; columns 1 and 2 contained a control compound (HCV control inhibitor), and the bottom row contained cells with DMSO only. The plates were then placed in a CO2 incubator at 37° C.
Assays. Subsequent to addition of the test compounds described above (FRET Assay Preparation), at various times the plate was removed and Alamar blue solution (Trek Diagnostics, #00-100) was added to measure cellular toxicity. After reading in a Cytoflour 4000 instrument (PE Biosystems), plates were rinsed with PBS and then used for FRET assay by the addition of 30 ul of the FRET peptide assay reagent described above (FRET Assay Preparation) per well. The plate was then placed into the Cytoflour 4000 instrument which had been set to 340 excite/490 emission, automatic mode for up to 20 cycles and the plate read in a kinetic mode. Typically, the signal to noise using an endpoint analysis after the reads was at least three-fold. Alternatively, after Alamar blue reading, plates were rinsed with PBS, then used for luciferase assay using the Promega Dual-Glo Luciferase Assay System or the Promega EnduRen Live Cell Substrate assay.
Compound analysis was performed by quantification of the relative HCV replicon inhibition and the relative cytotoxicity values. To calculate cytoxicity values, the average Alamar Blue fluorescence signals from the control wells were set as 100% non-toxic. The individual signals in each of the compound test wells were then divided by the average control signal and multiplied by 100% to determine […]. To calculate the HCV replicon inhibition values, an average background value was obtained from the two wells containing the highest amount of HCV control inhibitor at the end of the assay period. These numbers were similar to those obtained from naïve Huh-7 cells. The background numbers were then subtracted from the average signal obtained from the control wells and this number was used as 100% activity. The individual signals in each of the compound test wells were then divided by the averaged control values after background subtraction and multiplied by 100% to determine percent activity. EC50 values were calculated as the concentration which caused a 50% reduction in FRET or luciferase activity. The two numbers generated for the compound plate, percent cytoxicity and percent activity, were used to determine compounds of interest for further analysis.

[3] = HCV NS5B RdRp, determined using the preincubation protocol, read-out: IC50
[4] = HCV replicon cells, determined using the FRET assay, read-out: EC50

Row | SMILES | IC50 [1, 3] [µM] | EC50 [2, 4] [µM] | IC50 [1] [µM] | EC50 [2] [µM]
1 | COc1ccc2c(c1)[C@@H]1C[C@]1(NC(=O)C(=O)N1C[C@@H](C)O[C@@H](C)C1)Cn1c-2c(C2CCCCC2)c2ccc(C(=O)NS(=O)(=O)N(C)C)cc21 [drawing 34] | 0.001 to 0.5 | 0.001 to 0.5 |  | 
2 | COc1ccc2c(c1)C1CC1(NC(=O)C(=O)N1CCOCC1)Cn1c-2c(C2CCCCC2)c2ccc(C(=O)NS(=O)(=O)N(C)C)cc21 (stereo not drawn) | 0.001 to 0.5 | 0.001 to 0.5 |  | 
3 | COc1ccc2c(c1)C1CC1(NC(=O)C(=O)N(C)C)Cn1c-2c(C2CCCCC2)c2ccc(C(=O)NS(=O)(=O)CC(C)(C)C)cc21 (stereo not drawn) | 0.001 to 0.5 | 0.001 to 0.5 |  | 
4 | COC(=O)C(=O)NC12CC1c1cc(OC)ccc1-c1c(C3CCCCC3)c3ccc(C(=O)NS(=O)(=O)N(C)C)cc3n1C2 (stereo not drawn) | 0.001 to 0.5 | 0.001 to 0.5 |  | 
5 | COc1ccc2c(c1)C1CC1(NC(=O)C(=O)N1CC(OC)C1)Cn1c-2c(C2CCCCC2)c2ccc(C(=O)NS(=O)(=O)N(C)C)cc21 (stereo not drawn) | 0.001 to 0.5 | 0.001 to 0.5 |  | 
6 | COc1ccc2c(c1)[C@@H]1C[C@]1(NC(=O)N1C3CCC1CN(C)C3)Cn1c-2c(C2CCCCC2)c2ccc(C(=O)NS(=O)(=O)N(C)C)cc21 |  |  | 0.001 to 0.5 | 0.001 to 0.5
7 | COc1ccc2c(c1)C1CC1(NC(=O)C(=O)N1CC(C)N(C)C(C)C1)Cn1c-2c(C2CCCCC2)c2ccc(C(=O)NS(=O)(=O)N(C)C)cc21 (stereo not drawn) | 0.001 to 0.5 | 0.001 to 0.5 |  | 
8 | COc1ccc2c(c1)C1CC1(NS(=O)(=O)N1CCOCC1)Cn1c-2c(C2CCCCC2)c2ccc(C(=O)NS(=O)(=O)N(C)C)cc21 (stereo not drawn) | 0.001 to 0.5 | 0.001 to 0.5 |  | 
9 | COc1ccc2c(c1)[C@@H]1C[C@]1(NC(=O)C(=O)N1C[C@@H](C)O[C@@H](C)C1)Cn1c-2c(C2CCCCC2)c2ccc(C(=O)NS(=O)(=O)N(C)C)cc21 [drawing 43] | 0.001 to 0.5 | 0.001 to 0.5 |  | 
10 | CCC(C)S(=O)(=O)NC(=O)c1ccc2c(C3CCCCC3)c3n(c2c1)CC1(NC(=O)C(=O)N(C)C)CC1c1cc(OC)ccc1-3 (stereo not drawn) | 0.001 to 0.5 | 0.001 to 0.5 |  | 
11 | COc1ccc2c(c1)[C@@H]1C[C@]1(NC(=O)C(=O)N1CCOCC1c1ccccc1)Cn1c-2c(C2CCCCC2)c2ccc(C(=O)NS(=O)(=O)N(C)C)cc21 (stereo partly drawn) | 0.001 to 0.5 | 0.001 to 0.5 |  | 
12 | Cc1ccc2c(c1)C1CC1(NC(=O)C(=O)N(C)C)Cn1c-2c(C2CCCCC2)c2ccc(C(=O)NS(=O)(=O)C3CCC3)cc21 (stereo not drawn) | 0.001 to 0.5 | 0.001 to 0.5 |  | 
13 | COc1ccc2c(c1)C1CC1(NC(=O)C(=O)N(C)C)Cn1c-2c(C2CCCCC2)c2ccc(C(=O)NS(=O)(=O)N(C)C)cc21 (stereo not drawn) | 0.001 to 0.5 | 0.001 to 0.5 |  | 
14 | COc1ccc2c(c1)C1CC1(NC(=O)N1CC3CN(Cc4ccccc4)CC(C1)N3Cc1ccccc1)Cn1c-2c(C2CCCCC2)c2ccc(C(=O)NS(=O)(=O)N(C)C)cc21 (stereo not drawn) |  |  | 0.001 to 0.5 | 
